Assay results published in article PMC4058747, “Structural Mechanisms Determining Inhibition of the Collagen Receptor DDR1 by Selective and Multi-Targeted Type II Kinase Inhibitors” (Journal of Molecular Biology, 2014).
Read-outs that look alike come from different tables or passages of the source.

Key:
[1] = target: T1, DDR1 (Homo sapiens, UniProt Q08345); set-up: method as in PMID 23275061; settings: cited from earlier work
T1 construct: purchased Invitrogen

[2] = target: T1, DDR1; set-up: method as in PMID 23275061; settings: cited from earlier work; remark: listed apart in the source
[3] = target: T2, DDR2 (Homo sapiens, UniProt Q16832); test: LanthaScreen kinase activity assay (Invitrogen), DDR2; assay type: biochemical; settings: read-out: Enzymatic IC50 values DDR2
T2 construct: purchased Invitrogen
T2 sequence (Q16832 22-855): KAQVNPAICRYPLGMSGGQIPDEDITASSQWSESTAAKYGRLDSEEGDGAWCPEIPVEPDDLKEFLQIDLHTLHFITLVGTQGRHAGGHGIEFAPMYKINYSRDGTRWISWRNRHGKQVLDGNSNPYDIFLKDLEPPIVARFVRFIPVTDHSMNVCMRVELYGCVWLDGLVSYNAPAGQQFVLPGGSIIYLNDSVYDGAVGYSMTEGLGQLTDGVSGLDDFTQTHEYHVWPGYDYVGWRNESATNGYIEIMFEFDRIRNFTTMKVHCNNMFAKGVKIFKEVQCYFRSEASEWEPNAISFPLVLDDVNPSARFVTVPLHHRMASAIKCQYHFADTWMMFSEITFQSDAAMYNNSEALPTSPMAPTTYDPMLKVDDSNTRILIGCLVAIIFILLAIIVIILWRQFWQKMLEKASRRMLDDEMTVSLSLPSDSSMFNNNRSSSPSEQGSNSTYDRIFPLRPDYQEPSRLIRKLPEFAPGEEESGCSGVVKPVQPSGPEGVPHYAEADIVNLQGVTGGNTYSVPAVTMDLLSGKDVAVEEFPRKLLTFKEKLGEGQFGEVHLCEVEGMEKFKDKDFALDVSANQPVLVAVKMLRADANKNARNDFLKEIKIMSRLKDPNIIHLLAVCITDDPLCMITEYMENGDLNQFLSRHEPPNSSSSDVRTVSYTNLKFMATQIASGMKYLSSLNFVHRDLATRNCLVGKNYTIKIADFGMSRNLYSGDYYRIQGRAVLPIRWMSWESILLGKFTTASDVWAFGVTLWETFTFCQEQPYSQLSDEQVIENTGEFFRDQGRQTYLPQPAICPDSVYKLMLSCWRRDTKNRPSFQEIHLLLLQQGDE
Procedure: (§1) IC50 values were determined by Invitrogen using a LanthaScreen kinase activity assay.
(§2) Figure S2. Inhibition of DDR1 and DDR2. (a) IC50 values for DDR1 inhibition determined by using a LanthaScreen kinase activity assay (Invitrogen). (b) IC50 values for DDR2 inhibition determined similarly.

[4] = system: ABL; set-up: method as in PMID 23899692; settings: quoted for selectivity relative to DDR1; cited from earlier work
[5] = target: T1, DDR1; test: LanthaScreen kinase activity assay (Invitrogen), DDR1; assay type: biochemical; settings: for IC50: LanthaScreen kinase activity assay, read-out: Enzymatic IC50 values DDR1; for activity of analogs against DDR1 kinase activity (in words): removal of the trifluoromethyl group
Procedure: as §1, §2

T1 sequence (Q08345 19-913): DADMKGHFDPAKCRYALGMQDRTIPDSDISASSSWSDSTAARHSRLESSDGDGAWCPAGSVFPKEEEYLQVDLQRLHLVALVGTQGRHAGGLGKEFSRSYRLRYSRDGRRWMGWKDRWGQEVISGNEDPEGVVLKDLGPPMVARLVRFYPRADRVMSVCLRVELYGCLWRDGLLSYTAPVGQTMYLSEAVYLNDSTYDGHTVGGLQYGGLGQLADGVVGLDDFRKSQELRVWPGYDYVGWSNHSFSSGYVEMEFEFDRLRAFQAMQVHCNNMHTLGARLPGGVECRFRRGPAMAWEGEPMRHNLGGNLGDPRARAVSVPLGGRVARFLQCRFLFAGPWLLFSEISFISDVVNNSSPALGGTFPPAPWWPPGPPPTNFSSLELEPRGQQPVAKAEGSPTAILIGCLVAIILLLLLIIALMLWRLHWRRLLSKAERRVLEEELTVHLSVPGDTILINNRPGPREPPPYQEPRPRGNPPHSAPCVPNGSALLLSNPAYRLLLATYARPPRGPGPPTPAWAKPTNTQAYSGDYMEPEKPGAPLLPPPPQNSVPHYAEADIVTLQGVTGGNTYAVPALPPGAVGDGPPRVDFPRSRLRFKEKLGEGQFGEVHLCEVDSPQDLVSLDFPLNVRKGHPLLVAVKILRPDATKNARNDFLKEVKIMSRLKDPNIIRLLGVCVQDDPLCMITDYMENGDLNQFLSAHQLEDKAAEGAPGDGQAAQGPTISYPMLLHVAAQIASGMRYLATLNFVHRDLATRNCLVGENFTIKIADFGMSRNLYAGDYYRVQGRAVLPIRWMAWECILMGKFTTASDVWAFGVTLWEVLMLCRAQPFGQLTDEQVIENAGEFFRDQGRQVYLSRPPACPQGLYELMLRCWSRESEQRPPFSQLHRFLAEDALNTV

SMILES	IC50 [1] [nM]	EC50 [2] [nM]	IC50 [3] [nM]	IC50 [4] [nM]	IC50 [5] [nM]	activity of analogs against DDR1 kinase activity (in words) [5]
Cc1ccc(C(=O)Nc2ccc(Oc3cc4cnn(C)c4cc3-c3cn[nH]c3)c(F)c2)c(=O)n1-c1ccc(F)cc1 [LY2801653]	< 1	< 1	–	–	–	–
CCN1CCN(Cc2ccc(C(=O)Nc3ccc(C)c(Oc4ccc5c(c4)CC(=O)N5)c3)cc2C(F)(F)F)CC1 [DDR1-IN-1]	–	–	413	1800	–	–
Cc1ccc(NC(=O)c2cccc(C(C)(C)C#N)c2)cc1Oc1ccc2c(c1)CC(=O)N2 [Compound 5]	–	–	1020	–	174	–
Cc1ccc(NC(=O)c2ccc(OC3CCN(C)CC3)c(C(F)(F)F)c2)cc1Oc1ccc2c(c1)CC(=O)N2 [Compound 2]	–	–	338	–	115	–
CCN1CCN(Cc2ccc(NC(=O)Nc3ccc(C)c(Oc4ccc5c(c4)CC(=O)N5)c3)cc2C(F)(F)F)CC1 [Compound 1]	–	–	785	–	262	–
CCN1CCN(Cc2ccc(C(=O)Nc3ccc(C)c(Oc4ccc5c(c4)CC(=O)N5)c3)c(F)c2)CC1 [Compound 6]	–	–	> 10000	–	> 10000	inactive
CCN1CCN(Cc2ccc(F)c(C(=O)Nc3ccc(C)c(Oc4ccc5c(c4)CC(=O)N5)c3)c2)CC1 [Compound 7]	–	–	> 10000	–	8940	inactive
CCN1CCN(c2cc(C(=O)Nc3ccc(C)c(Oc4ccc5c(c4)CC(=O)N5)c3)cc(C(F)(F)F)c2)CC1 [Compound 4]	–	–	385	–	150	–
Cc1ccc(NC(=O)c2cc(N3CCN(CCO)CC3)cc(C(F)(F)F)c2)cc1Oc1ccc2c(c1)CC(=O)N2 [Compound 3]	–	–	546	–	182	–
